US20240376097A1, “BCL-2 Inhibitor” (BeiGene Ltd., priority 2020, published 2024)
Like-named read-outs stand apart in the source and are kept apart here.

How the values were obtained:
[1] = tested on: recombinant human Bcl-2-G101V protein; experiment: Bcl-2-G101V TR-FRET Assay; assay type: binding; settings: ratio of biochemical IC50 Bcl-2 G101V / Bcl-2 WT
Description: (§1) Biological Example: Bcl-2-G101V TR-FRET Assay
(§2) […]. The TR-FRET signals (ex337 nm, em490 nm/520 nm) were read on BMG PHERAstar FSX instrument. The inhibition percentage of Bcl-2-G101V interaction with its ligand in presence of increasing concentrations of compounds was calculated based on the ratio of fluorescence at 490 nm to that at 520 nm. The IC50 for each compound was derived from fitting the data to the four-parameter logistic equation by Graphpad Prism software or Dotmatics.

[2] = molecular target: recombinant human Bcl-2-G101V protein (Homo sapiens (Human), UniProt P10415, G101V); experiment: Bcl-2-G101V TR-FRET Assay; assay type: binding; settings: Bcl-2 G101V mutant, TR-FRET; read-out: Biochemical assay (IC50, nM) Bcl-2 G101V
Description: as §1, §2

[3] = tested on: RS4;11 (BCL-2 dependent acute lymphoblastic leukemia cell line); experiment: RS4;11 Cell Proliferation Assay; assay type: cell-based; settings: read-out: Cellular proliferation assay (IC50, nM) RS4
Description: Biological Example: RS4;11 Cell Proliferation Assay
The BCL-2 dependent acute lymphoblastic leukemia (ALL) cell line, RS4;11, was used to study the cellular potency of BCL-2 inhibitors. The cells (ATCC, CRL-1873) were cultured in RPMI-1640 complete medium (RPMI-1640 medium, HEPES (Gibco, 22400-105) supplemented with 10% fetal bovine serum (FBS) (Gibco, 10099-1441), 100 unit/ml penicillin and 100 μg/ml streptomycin (Gibco, 15140122)) and maintained in a humidified chamber at 37° C. containing 5% CO2. Each compound was serially diluted with 1 μM as the maximum concentration. To test the apoptotic effect of the compounds, the cells were seeded at 50,000 in 180 μl per well in 96-well plates and treated with 10-point dilution series of each compound for 48 hrs at 37° C. Cell viability was assessed after the treatment using CellTiter-GLO luminescent assay (Promega) according to the manufacturer's recommendations. Briefly, 30 μl of CellTiter-GLO reagent was added into 200 μl of cell culture. Mixture was agitated on an orbital shaker for 5 min to ensure cell lysis followed by 7 min incubation at room temperature to allow development and stabilization of luminescent signals, which corresponded to the quantity of ATP and thus the quantity of metabolically active cells. Luminescent signals were measured using PHERAstar FS reader (BMG). Mean IC50 values were determined with GraphPad Prism software.

[4] = molecular target: Recombinant human Bcl-2 protein (Homo sapiens (Human), UniProt P10415); experiment: Bcl-2 TR-FRET Assay; assay type: binding
Description: Biological Example: Bcl-2 TR-FRET Assay
Compounds disclosed herein were tested for blocking of Bcl-2 protein with its ligand in an assay based on Time-Resolved Fluorescence Resonance Energy Transfer (TR-FRET) methodology. Recombinant human 0.05 nM Bcl-2 protein was pre-incubated with a serial dilution of compounds disclosed herein (top final concentration is 1 uM or 0.1 uM or 0.02 uM or 0.01 uM, 10 points) at room temperature for 0.5 hour in an assay buffer containing 20 mM potassium phosphate buffer, pH 7.5, 50 mM NaCl. 1 mM EDTA, 0.05% Tween-20, 0.01% BSA. Then the FITC labeled Bak peptide Ac-GQVGRQLAIIGDK(FITC)INR-amide (0.5 nM) and MAb Anti 6His Tb cryptate Gold were added to plate and further incubated at room temperature for 1 hour. The TR-FRET signals (337 nm-520 nm-490 nm) were read on BMG PHERAstar FSX instrument. The inhibition percentage of Bcl-2 interaction with its ligand in presence of increasing concentrations of compounds was calculated based on the TR-FRET signals. The IC50 for each compound was derived from fitting the data to the four-parameter logistic equation by Graphpad Prism software or Dotmatics.

[5] = molecular target: recombinant human Bcl-2 D103Y protein (Homo sapiens (Human), UniProt P10415, D103Y); experiment: Bcl-2-D103Y Biochemical Assay (TR-FRET); assay type: binding; settings: for IC50: TR-FRET, FITC labeled Bak peptide; for Ratio of Bcl-2 D103Y/Bcl-2 WT: ratio of IC50
Description: Biological Example: Bcl-2-D103Y Biochemical Assay
as §2, with “Bcl-2 D103Y” for “Bcl-2-G101V”, “by” for “by Graphpad Prism software or”

[6] = Bcl-2 wild type, TR-FRET, read-out: Biochemical assay (IC50, nM) Bcl-2 WT
[7] = wild type Bcl-2, unit inferred, read-out: Bcl-2 WT

Structure (SMILES) | Ratio of Bcl-2 G101V/WT [1] | IC50 [2] [nM] | IC50 ([3]; RS4;11 cells) [nM] | IC50 [4, 6] [nM] | IC50 [5] [nM] | Ratio of Bcl-2 D103Y/Bcl-2 WT [5] | IC50 [4, 7] [nM] | IC50 ([3]; Homo sapiens, RS4-11, RS4;11 cells) [nM]
CC(C)c1ccccc1C1CN(C(C)c2ccccc2)CCN1C1CC2(CCN(c3ccc(C(=O)NS(=O)(=O)c4ccc(NC[C@H]5CC[C@](C)(O)CC5)c([N+](=O)[O-])c4)c(Oc4cnc5[nH]ccc5c4)c3)CC2)C1 (single isomer, unassigned) [Example 24a, 2-((1H-pyrrolo[2,3-b]pyridin-5-yl)oxy)-N-((4-((((1r,4r)-4-hydroxy-4-methylcyclohexyl)methyl)amino)-3-nitrophenyl)sulfonyl)-4-(2-(2-(2-isopropylphenyl)-4-(1-phenylethyl)piperazin-1-yl)-7-azaspiro[3.5]nonan-7-yl)benzamide] | 18.6 | 6.9 | 3.4 | 0.37 |  |  |  | 
CC(C)c1ccccc1C1CN(Cc2ccc(OC(F)(F)F)cc2)CCN1C1CC2(CCN(c3ccc(C(=O)NS(=O)(=O)c4ccc(NC[C@H]5CC[C@](C)(O)CC5)c([N+](=O)[O-])c4)c(Oc4cnc5[nH]ccc5c4)c3)CC2)C1 (stereo partly shown) [Example 39, 2-((1H-pyrrolo[2,3-b]pyridin-5-yl)oxy)-N-((4-((((1r,4r)-4-hydroxy-4-methylcyclohexyl)methyl)amino)-3-nitrophenyl)sulfonyl)-4-(2-(2-(2-isopropylphenyl)-4-(4-(trifluoromethoxy)benzyl)piperazin-1-yl)-7-azaspiro[3.5]nonan-7-yl)benzamide] | 6.1 | 6.7 |  | 1.1 | 3.8 | 3.5 | 1.1 | 
CC(C)c1ccccc1C1CN(c2ccccc2)CCN1C1CC2(CCN(c3ccc(C(=O)NS(=O)(=O)c4ccc(NC[C@H]5CC[C@](C)(O)CC5)c([N+](=O)[O-])c4)c(Oc4cnc5[nH]ccc5c4)c3)CC2)C1 (stereo partly shown) [Example 65, 2-((1H-pyrrolo[2,3-b]pyridin-5-yl)oxy)-N-((4-((((1r,4r)-4-hydroxy-4-methylcyclohexyl)methyl)amino)-3-nitrophenyl)sulfonyl)-4-(2-(2-(2-isopropylphenyl)-4-phenylpiperazin-1-yl)-7-azaspiro [3.5]nonan-7-yl)benzamide] | 62.8 | 54 |  | 0.86 |  |  |  | 5.9
COc1ccc(CN2CCN(C3CC4(CCN(c5ccc(C(=O)NS(=O)(=O)c6ccc(NCC7(F)CCC(C)(O)CC7)c([N+](=O)[O-])c6)c(Oc6cnc7[nH]ccc7c6)c5)CC4)C3)[C@H](c3ccccc3C(C)C)C2)cc1 (stereo partly drawn) [Example 226, (R)-2-((1H-pyrrolo[2,3-b]pyridin-5-yl)oxy)-N-((4-(((1-fluoro-4-hydroxy-4-methylcyclohexyl)methyl)amino)-3-nitrophenyl)sulfonyl)-4-(2-(2-(2-isopropylphenyl)-4-(4-methoxybenzyl)piperazin-1-yl)-7-azaspiro[3.5]nonan-7-yl) benzamide] | 3.9 | 0.64 |  | 0.17 | 0.16 | 1 | 0.17 | 
COc1cc(CN2CCN(C3CC4(CCN(c5ccc(C(=O)NS(=O)(=O)c6ccc(NC[C@H]7CC[C@](C)(O)CC7)c([N+](=O)[O-])c6)c(Oc6cnc7[nH]ccc7c6)c5)CC4)C3)[C@H](c3ccccc3C(C)C)C2)cc2c1OCC2(C)C [Example 286, 2-((1H-pyrrolo[2,3-b]pyridin-5-yl)oxy)-N-((4-((((1r,4r)-4-hydroxy-4-methylcyclohexyl)methyl)amino)-3-nitrophenyl)sulfonyl)-4-(2-((R)-2-(2-isopropylphenyl)-4-((7-methoxy-3,3-dimethyl-2,3-dihydrobenzofuran-5-yl)methyl)piperazin-1-yl)-7-azaspiro[3.5]nonan-7-yl)benzamide] | 4.8 | 0.48 |  | 0.1 | 0.19 | 1.9 | 0.1 | 
CNc1ccc(CN2CCN(C3CC4(C3)CN(c3ccc(C(=O)NS(=O)(=O)c5ccc(NC[C@H]6CC[C@](C)(O)CC6)c([N+](=O)[O-])c5)c(Oc5cnc6[nH]cc(F)c6c5)c3)C4)[C@H](c3ccccc3C(C)C)C2)cc1OC [Example 358, 2-((3-fluoro-1H-pyrrolo[2,3-b]pyridin-5-yl)oxy)-N-((4-((((1r,4r)-4-hydroxy-4-methylcyclohexyl)methyl)amino)-3-nitrophenyl)sulfonyl)-4-(6-((R)-2-(2-isopropylphenyl)-4-(3-methoxy-4-(methylamino)benzyl)piperazin-1-yl)-2-azaspiro[3.3]heptan-2-yl) benzamide] | 2.4 | 0.24 |  | 0.1 | 0.11 | 1.1 | 0.1 | 
CC(C)c1ccccc1[C@@H]1CN(Cc2ccc(C3CCOCC3)cc2)CCN1C1CC2(C1)CN(c1ccc(C(=O)NS(=O)(=O)c3ccc(NC[C@H]4CC[C@](C)(O)CC4)c([N+](=O)[O-])c3)c(Oc3cnc4[nH]cc(F)c4c3)c1)C2 [Example 370, 2-((3-fluoro-1H-pyrrolo[2,3-b]pyridin-5-yl)oxy)-N-((4-((((1r,4r)-4-hydroxy-4-methylcyclohexyl)methyl)amino)-3-nitrophenyl)sulfonyl)-4-(6-((R)-2-(2-isopropylphenyl)-4-(4-(tetrahydro-2H-pyran-4-yl)benzyl)piperazin-1-yl)-2-azaspiro[3.3]heptan-2-yl) benzamide] | 3.7 | 0.67 |  | 0.18 |  |  |  | 
CC(C)c1ccccc1[C@@H]1CN(Cc2ccc(C3CCOC3)cc2)CCN1C1CC2(C1)CN(c1ccc(C(=O)NS(=O)(=O)c3ccc(NCC4CCC(C)(O)CC4)c([N+](=O)[O-])c3)c(Oc3cnc4[nH]cc(F)c4c3)c1)C2 (stereo partly drawn) [Example 371, 2-((3-fluoro-1H-pyrrolo[2,3-b]pyridin-5-yl)oxy)-N-((4-((((1r,4r)-4-hydroxy-4-methylcyclohexyl)methyl)amino)-3-nitrophenyl)sulfonyl)-4-(6-((2R)-2-(2-isopropylphenyl)-4-(4-(tetrahydrofuran-3-yl)benzyl)piperazin-1-yl)-2-azaspiro[3.3]heptan-2-yl)benzamide] | 2.7 | 0.32 |  | 0.12 | 0.31 | 2.6 |  | 
